Measured values taken from patent US8202998B2, “Salts of benzimidazolyl pyridyl ethers and formulations thereof” (Novartis AG, priority 2006, dated 2012).
Each block holds one compound with its values, some of them ahead of it.

What was measured:
[1] = Polymorphism behavior: crystal modification after 24 hours equilibration; type: physicochemical
Procedure: A suspension of 6 mg of drug substance in 300 μl of solvent is prepared. Samples are agitated for ≧24 hour at 22° C.±2° C. The solids are collected and investigated for changes.

[2] = Thermogravimetry / loss on drying; type: physicochemical
[3] = Determination of solubility at 25° C.; type: physicochemical; details: for solubility: thermodynamic from solid
Procedure: Excess solids were equilibrated in each solvent for over 24 hours at 25° C.±0.1. Concentration in aqueous supernatant was measured by UV and HPLC and concentrations in organic solvents by gravimetry.

[4] = Intrinsic dissolution rate; type: physicochemical; details: 37° C.
Procedure: The intrinsic dissolution rate measurements were carried out in 0.5 cm^2 VanKel die assemblies and a pellet pressure of 1 ton. The dissolution was measured using a Cary 50 spectrophotometer with a stirring rate of 200 rpm. The solution medium was held at 37° C. and measurements were made at 276 nm.

[5] = Effect of grinding on morphic properties; type: physicochemical
[6] = Stability: degradation products (DP) and appearance (color) under stress conditions; type: physicochemical; design: key to CL: A: No change of color; B: Slight discoloration; C: Medium discoloration; D: Strong discoloration; ↓: Suspension; *: Clear solution after stress test; —: no change; x: test not performed
Procedure: Column: Symmetry C18 (Waters), 3.5 μm, 3×150 mm
Mobile phase: A=0.1% TFA in water; B=acetonitrile
Gradient: 20 to 100% B in 10 minutes
Column temperature: 40° C.
Stability of the three salts with respect to color and degradation products were assessed under various conditions.

[7] = pH of 1% solution or suspension; type: physicochemical; details: In water
[8] = Hygroscopicity (sorption/desorption); type: physicochemical
Procedure: Sorption/desorption isotherms were measured using VTI vapor sorption device (DVS-1). Measurements were carried out at 25° C.

[9] = Aqueous solubility of salts in deionized water
[10] = 0.1% solutions or suspensions, 1 week 80° C. or 50° C., Methanol
[11] = 0.1% solutions or suspensions, 1 week 80° C. or 50° C., Water
[12] = 1-2 weeks 50° C., tight container, 1% in mixture 1
[13] = 1-2 weeks 50° C., tight container, 1% in mixture 2
[14] = 1-2 weeks 50° C./75% r.h., 1% in mixture 1
[15] = 1-2 weeks 50° C./75% r.h., 1% in mixture 2
[16] = Solid stage, 1 week 80° C., tight container, Bulk (HPLC)
[17] = Xenon light (approx. 1200 kLuxh), Bulk (HPLC)
[18] = deionized water, water, thermodynamic from solid

Crystal modification after 24 hours equilibration (DSC/XRPD/TG) ([1]; 2-propanol): No change | Crystal modification after 24 hours equilibration (DSC/XRPD/TG) ([1]; Acetone): No change | Crystal modification after 24 hours equilibration (DSC/XRPD/TG) ([1]; Acetonitrile): No change | Crystal modification after 24 hours equilibration (DSC/XRPD/TG) ([1]; Ethanol): No change | Crystal modification after 24 hours equilibration (DSC/XRPD/TG) ([1]; Ethyl acetate): No change | Crystal modification after 24 hours equilibration (DSC/XRPD/TG) ([1]; Methanol): No change | Crystal modification after 24 hours equilibration (DSC/XRPD/TG) ([1]; PEG400): No change | Crystal modification after 24 hours equilibration (DSC/XRPD/TG) ([1]; Water): No change | Loss on drying by TG ([2]; As is): 2.1% | Thermogravimetry (weight loss in %) ([2]; Heating rate 20 K/min): 2.1% | solubility ([3]; 0.1N HCl, 25 °C, simulated gastric fluid, read-out: Solubility (approx. at 25° C.) (HPLC)): 3700 µg/mL | solubility ([3]; acetonitrile, 25 °C, organic solvent or mixture, read-out: Solubility (approx. at 25° C.)): 2100 µg/mL | solubility ([3]; aqueous medium at pH 3, 25 °C, pH 3, aqueous buffer, read-out: Solubility (approx. at 25° C.) (HPLC)): 2.3 µg/mL | solubility ([3]; aqueous medium at pH 4.5, 25 °C, pH 4.5, aqueous buffer, read-out: Solubility (approx. at 25° C.) (HPLC)): 3.7 µg/mL | Solid ([3]; line after Water under Solubility): No change | solubility ([3]; methanol, 25 °C, organic solvent or mixture, read-out: Solubility (approx. at 25° C.)): > 50000 µg/mL | Measured pH ([3]; solubility sample in 0.1N HCl): 1.4 | solubility ([3]; water, 25 °C, water, read-out: Solubility (approx. at 25° C.) (HPLC)): 60 µg/mL | Intrinsic dissolution rate ([4]; HCl 0.1N): 0.06 mg min^−1 cm^−2 | Intrinsic dissolution rate ([4]; Water): 0.0036 mg min^−1 cm^−2 | Effect of grinding [5]: No change | CL [6, 10]: A | DP [6, 10]: 2.5% | DP ([6]; 0.1% solutions or suspensions, 1 week 80° C. or 50° C., Methanol, listed as esylate): 2.7% | CL [6, 11]: A↓ | DP [6, 11]: 0.4% | CL [6, 12]: A | DP [6, 12]: 0.5% | CL [6, 13]: A | DP [6, 13]: 0.6% | CL [6, 14]: A | DP [6, 14]: 1.8% | CL [6, 15]: A | DP [6, 15]: 0.8% | CL [6, 16]: A | DP [6, 16]: 0.5% | DP ([6]; Solid state, 1 week 80° C./175% r.h, Bulk (HPLC)): 0.6% | CL ([6]; Solid state, 1 week 80° C./, Bulk (HPLC)): A | DP ([6]; Unstressed): 0.5% | CL [6, 17]: A | DP [6, 17]: 0.7% | pH of 1% solution or suspension [7]: 2.2 | Hygroscopicity from moisture sorption profiles (in words) [8]: hygroscopic | Hygroscopicity: After 1 day at 80% r.h. ([8]; 80% r.h., 1 day, 25° C.): 5.3 | Hygroscopicity: After 1 day at 95% r.h. ([8]; 95% r.h., 1 day, 25° C.): 14.9
Structure (SMILES): CCS(=O)(=O)O.Cn1c(Nc2ccc(C(F)(F)F)cc2)nc2cc(Oc3ccnc(-c4ncc(C(F)(F)F)[nH]4)c3)ccc21 [Esylate, {1-methyl-5-[2-(5-trifluoromethyl-1H-imidazol-2-yl)-pyridin-4-yloxy]-1H-benzoimidazol-2-yl}-(4-trifluoromethyl-phenyl)amine ethanesulfonate]
Aqueous solubility (in words) ([3]; summary of Table 8): significantly improves aqueous solubility at all pH levels

solubility [9, 18]: 10 µg/mL | solubility at 48 h [9, 18]: 457 µg/mL | pH ([9]; pH of the saturated aqueous solutions): 2.079
Structure (SMILES): Cl.Cn1c(Nc2ccc(C(F)(F)F)cc2)nc2cc(Oc3ccnc(-c4ncc(C(F)(F)F)[nH]4)c3)ccc21 [Hydrochloride, {1-methyl-5-[2-(5-trifluoromethyl-1H-imidazol-2-yl)-pyridin-4-yloxy]-1H-benzoimidazol-2-yl}-(4-trifluoromethyl-phenyl)amine hydrochloride]
